Experiment [1] deals with T1, Dihydrofolate reductase (Escherichia coli) (UniProt P0ABQ4).
T1 sequence (whole entry): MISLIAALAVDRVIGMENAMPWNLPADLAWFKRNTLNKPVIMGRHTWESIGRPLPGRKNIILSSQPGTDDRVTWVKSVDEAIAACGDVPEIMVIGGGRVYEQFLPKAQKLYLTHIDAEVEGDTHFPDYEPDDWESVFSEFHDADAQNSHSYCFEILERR
Nature of the experiment: (§1) Inhibitory activity against Dihydrofolate reductase obtained from Escherichia coli.

Experiment [2] addresses T2, Dihydrofolate reductase (Rattus norvegicus) (UniProt Q920D2).
T2 sequence (whole entry): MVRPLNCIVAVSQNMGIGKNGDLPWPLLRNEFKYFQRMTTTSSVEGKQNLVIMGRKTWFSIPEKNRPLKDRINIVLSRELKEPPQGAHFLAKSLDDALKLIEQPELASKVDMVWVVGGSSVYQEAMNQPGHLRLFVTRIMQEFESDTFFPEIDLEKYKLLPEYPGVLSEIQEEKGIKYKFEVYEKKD
Nature of the experiment: Inhibitory activity against Dihydrofolate reductase obtained from rat liver.

Another experiment has as its target T3, Dihydrofolate reductase (Escherichia coli, UniProt P0ABQ4).
T3 sequence (P0ABQ4 whole entry): T1 sequence (whole entry)
Described as §1. To be noted: read-out: I50.

In turn, `Nc1nc2c(N)cc(C(=O)c3ccccc3)cc2[nH]1` showed an I14 in experiment [1] of 100 µM. Besides, the I16 in experiment [2] was determined as 100 µM.
Take `Nc1nc2c(N)cc(Cc3ccccc3)cc2[nH]1`: in experiment [1], the I42 worked out at 300 µM. Moreover, the I5 in experiment [2] was 300 µM.
For `Nc1cc2c(N)cc(Cc3ccccc3)cc2[nH]1`, the IC50 on Dihydrofolate reductase is 100 µM. In experiment [2], the I28 was 500 µM.
As to `Nc1nc2c(N)c3c(cc2[nH]1)CCC3`, the I13 in experiment [1] was 360 µM. For the same compound, in experiment [2], the I7 stood at 360 µM.
In experiment [1], `Nc1nc2c(N)c3c(cc2[nH]1)C1(CC3)SCCS1` gave an I31 of 140 µM. Further, the I14 in experiment [2] was 14 µM.

The record behind these values is ChEMBL document CHEMBL1125667, “Receptor-based design of novel dihydrofolate reductase inhibitors: benzimidazole and indole derivatives” (J Med Chem, 1991).
